Values of other authors as cited in patent US20220288158A1, “NOVEL ENTERIC COMBINATION THERAPY” (priority 2009, published 2022).

Test system: patients with constipation
Conditions: for effect on bowel activity when used in constipation: literature, Brandt L J et al 2009

Compound | effect on bowel activity when used in constipation | use of vancomycin alone in constipation (not all patients respond, and respond but partially)
CO[C@H]1/C=C/O[C@@]2(C)Oc3c(C)c(O)c4c(O)c(c5c(nc6cc(C)ccn65)c4c3C2=O)NC(=O)/C(C)=C\C=C\[C@H](C)[C@H](O)[C@@H](C)[C@@H](O)[C@@H](C)[C@H](OC(C)=O)[C@@H]1C [rifaximin] | variable and not reproducible | 
CN[C@H](CC(C)C)C(=O)N[C@H]1C(=O)N[C@@H](CC(N)=O)C(=O)N[C@H]2C(=O)N[C@H]3C(=O)N[C@H](C(=O)N[C@H](C(=O)O)c4cc(O)cc(O)c4-c4cc3ccc4O)[C@H](O)c3ccc(c(Cl)c3)Oc3cc2cc(c3O[C@@H]2O[C@H](CO)[C@@H](O)[C@H](O)[C@H]2O[C@H]2C[C@](C)(N)[C@H](O)[C@H](C)O2)Oc2ccc(cc2Cl)[C@H]1O [vancomycin] |  | inefficient
Cc1ncc([N+](=O)[O-])n1CCO [metronidazole] | variable and not reproducible | 
CC[C@H]1OC(=O)[C@H](C)[C@@H](O[C@H]2C[C@@](C)(OC)[C@@H](O)[C@H](C)O2)[C@H](C)[C@@H](O[C@@H]2O[C@H](C)C[C@H](N(C)C)[C@H]2O)[C@](C)(OC)C[C@@H](C)C(=O)[C@H](C)[C@@H](O)[C@]1(C)O [clarithromycin] | variable and not reproducible | 
neomycin | variable and not reproducible | 
